Experimental data: patent publication US10851083B2, “Benzoimidazoles as prolyl hydroxylase inhibitors” (Janssen Pharmaceutica NV, priority 2008, dated 2020)

What was measured:
Hep-3B cells = experiment: Cellular assay: EPO secretion in Hep-3B cells; assay type: cell-based, human; set-up: EPO secretion, % of control compound: dose or concentration left out as unconfirmed; details: Homo sapiens, Hep3B, 24 h, EPO secretion as percentage of control compound 7-[(4-Chloro-phenyl)-(5-methyl-isoxazol-3-ylamino)-methyl]-quinolin-8-ol, read-out: Cellular % EPO Stimulation
human PHD2181-417 = human PHD2181-417 (Homo sapiens (Human), UniProt Q9GZT9); experiment: PHD2 enzyme activity assay ([14C]-succinic acid production); assay type: biochemical; details: PHD2181-417 polypeptide, HIF-1α peptide 10 μM, [5-14C]-2-oxoglutaric acid; 30 min pre-incubation; tested 10 μM to 3 nM;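 also: reaction ran 10 min with compound in Tris pH 7.5 buffer with catalase, DTT and ascorbate, labelled succinate freed of leftover 2-oxoglutarate by DNP precipitation, then beta counted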
Chain of human PHD2181-417 (Q9GZT9 181-417): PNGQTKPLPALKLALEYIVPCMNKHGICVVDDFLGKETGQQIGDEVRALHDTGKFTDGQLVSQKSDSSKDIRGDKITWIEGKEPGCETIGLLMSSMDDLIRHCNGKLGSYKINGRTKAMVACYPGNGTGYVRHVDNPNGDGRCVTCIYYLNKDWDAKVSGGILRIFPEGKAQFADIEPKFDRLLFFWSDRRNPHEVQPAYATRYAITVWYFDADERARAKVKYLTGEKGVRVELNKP

SMILES	Enzyme pIC50 (human PHD2181-417)	EPO secretion, % of control compound (Hep-3B cells)
O=C(O)c1cnn(-c2nc3cc(S(=O)(=O)CCc4ccccc4)c(Cl)cc3[nH]2)c1 [Example 94, 1-[6-Chloro-5-(2-phenyl-ethanesulfonyl)-1H-benzoimidazol-2-yl]-1H-pyrazole-4-carboxylic Acid]	7.4	65.1%
O=C(O)c1cnn(-c2nc3cc(C(=O)NCc4ccccc4)ccc3[nH]2)c1 [Example 121, 1-(5-Benzylcarbamoyl-1H-benzoimidazol-2-yl)-1H-pyrazole-4-carboxylic Acid]	7.1	18.5%
Cc1cccc(S(=O)(=O)c2cc3nc(-n4cc(C(=O)O)cn4)[nH]c3cc2Cl)c1 [Example 82, 1-[6-Chloro-5-(toluene-3-sulfonyl)-1H-benzoimidazol-2-yl]-1H-pyrazole-4-carboxylic Acid]	7.4	85.3%
CCSc1cc2nc(-n3cc(C(=O)O)cn3)[nH]c2cc1C(F)(F)F [Example 149, 1-(5-Ethylsulfanyl-6-trifluoromethyl-1H-benzoimidazol-2-yl)-1H-pyrazole-4-carboxylic Acid]	7.3	57.8%
CSc1cc2[nH]c(-n3cc(C(=O)O)cn3)nc2cc1OC(F)(F)F [Example 79, 1-(6-Methylsulfanyl-5-trifluoromethoxy-1H-benzoimidazol-2-yl)-1H-pyrazole-4-carboxylic Acid]	7.1	83.8%
O=C(O)c1cnn(-c2nc3cc(Oc4ccc(Cl)cc4)c(C(F)(F)F)cc3[nH]2)c1 [Example 55, 1-[5-(4-Chloro-phenoxy)-6-trifluoromethyl-1H-benzoimidazol-2-yl]-1H-pyrazole-4-carboxylic Acid]	7.5	44.2%
COc1ccc(CS(=O)(=O)c2cc3nc(-n4cc(C(=O)O)cn4)[nH]c3cc2Cl)cc1 [Example 91, 1-[6-Chloro-5-(4-methoxy-phenylmethanesulfonyl)-1H-benzoimidazol-2-yl]-1H-pyrazole-4-carboxylic Acid]	7.7	22%
O=C(O)c1cnn(-c2nc3cc(S(=O)(=O)c4ccc(Cl)c(Cl)c4)c(Cl)cc3[nH]2)c1 [Example 87, 1-[6-Chloro-5-(3,4-dichloro-benzenesulfonyl)-1H-benzoimidazol-2-yl]-1H-pyrazole-4-carboxylic Acid]	6.68	32.4%

Second part, led by results:

Enzyme pIC50 (human PHD2181-417)	SMILES	EPO secretion, % of control compound (Hep-3B cells)
6.5	COc1cc2[nH]c(-n3cc(C(=O)O)cn3)nc2cc1Cl [Example 46, 1-(6-Chloro-5-methoxy-1H-benzoimidazol-2-yl)-1H-pyrazole-4-carboxylic Acid]	76%
6.6	O=C(O)c1cnn(-c2nc3c(Br)cc(Cl)cc3[nH]2)c1 [Example 37, 1-(4-Bromo-6-chloro-1H-benzoimidazol-2-yl)-1H-pyrazole-4-carboxylic Acid]	34%
6	O=C(O)c1cnn(-c2nc3ccc4scnc4c3[nH]2)c1 [Example 125, 1-(8H-Imidazo[4′,5′:3,4]benzo[2,1-d]thiazol-7-yl)-1H-pyrazole-4-carboxylic Acid]	46.8%
5.8	Cc1c(F)ccc2[nH]c(-n3cc(C(=O)O)cn3)nc12 [Example 116, 1-(5-Fluoro-4-methyl-1H-benzoimidazol-2-yl)-1H-pyrazole-4-carboxylic Acid]	18.3%
6.3	O=C(O)c1cnn(-c2nc3cc(Br)cc(F)c3[nH]2)c1 [Example 48, 1-(5-Bromo-7-fluoro-1H-benzoimidazol-2-yl)-1H-pyrazole-4-carboxylic Acid]	44%
6.4	O=C(O)c1cnn(-c2nc3cc(Cl)cc(C(F)(F)F)c3[nH]2)c1 [Example 28, 1-(5-Chloro-7-trifluoromethyl-1H-benzoimidazol-2-yl)-1H-pyrazole-4-carboxylic Acid]	16.6%
